For assay [1], the system named is muscle-invasive bladder cancer. Nature of the assay: Pathologic response to neoadjuvant cisplatin-based chemotherapy, DFCI/MSKCC cohort. The class given is in vivo, human. The conditions noted are these: for complete response rate: all cases. The source says: (§1) To validate the ability of the NERDetect classifier to discriminate between ERCC2 mutant and WT bladder tumors, we analyzed WES data from three additional independent bladder cancer cohorts^53,0,31. The DFCI/MSK (n=50) and FCCC (n=48) cohorts are comprised of muscle-invasive bladder cancer patients who received neoadjuvant cisplatin-based chemotherapy followed by radical cystectomy, while the BGI cohort (n=98) included patients with MIBC or non-muscle-invasive bladder cancer.
(§2) Patients in the DFCI/MSK and FCCC cohorts were treated with cisplatin-based chemotherapy followed by radical cystectomy, and cisplatin responders were defined as those that had no residual invasive disease on pathologic examination of the cystectomy specimen.
(§3) Patients in the DFCI/MSK and Philadelphia cohorts were treated with cisplatin-based chemotherapy followed by radical cystectomy, and cisplatin responders were defined as patients with no residual invasive disease on pathologic examination of the cystectomy specimen.

Assay [2] concerns MDA-MB-468 breast cancer cell line (NER deficient, ERCC4 silenced). As to conditions: MDA-MB-468 with re-expression of WT ERCC4; previous work; cited from earlier work.
In assay [3] the test system is cisplatin-resistant MDA-MB-468 cell line. Nature of the assay: In vitro drug sensitivity assay in cisplatin-resistant derivative. The class given is cell-based. The conditions noted are these: cisplatin-resistant vs parental MDA-MB-468. The method, then:
Cells were seeded in either 96-well (5,000 cells/well) or 24-well (20,000 cells/well) plates. The following day, irofulven and cisplatin stock solutions were serially diluted in media and added to cells. After 48 to 72 hours, media was removed and CellTiter-Glo® reagent (Promega; Madison, WI) was added. Plates were scanned using a luminescence microplate reader (BioTek). Survival at each drug concentration was plotted as a percentage of survival in drug-free media with error bars representing the standard deviation of at least three experiments.
Platinum-based chemotherapy is a first-line treatment for numerous solid malignancies including bladder cancer, but platinum resistance frequently occurs and represents a challenging clinical problem. Although a variety of platinum resistance mechanisms have been characterized, restoration or upregulation of DNA repair is a common mechanism of resistance, particularly in HR-deficient breast and ovarian tumors^33. Mechanisms of platinum resistance in NER deficient tumors have not been characterized, and we wished to determine if acquired resistance to cisplatin would confer cross-resistance to irofulven through restoration of NER. To test this, we derived cisplatin resistance in the NER-deficient MDA-MB-468 cell line by gradual exposure to escalating doses of cisplatin (Methods).

The subject of assay [4] is SC14 (SW1710 derivative with ERCC2 P463L mutation). Nature of the assay: In vitro drug sensitivity assay. As to conditions: ERCC2-mutant SC14 line compared with SW1710. The class given is cell-based. The text has this:
(§4) Bladder cancer cell lines were purchased from ATCC. The KE1 bladder cancer cell line is a derivative of KU19-19 in which an ERCC2 T484 mutation has been introduced by CRISPR/Cas9 gene editing as previously described (6). The MDA-MB-468 breast cancer cell line and its ERCC4-complemented derivative have been previously described (35). Small interfering RNAs (siRNAs) targeting specific NER genes as well as a non-targeting siRNA (siNTC) were purchased from Integrated DNA Technologies Inc. (Coralville, IA, USA; see Table 9 for sequences). Cells were seeded in 6-well plates and grown to 50% confluency. A transfection mixture containing siRNA diluted to a final concentration of 30 nM in Opti-MEM media containing Lipofectamine 3000 (Life Technologies; Carlsbad, CA) was then added to cells. After 48 hours, cells were trypsinized and re-aliquoted to separate wells and transfected with 15 nM siRNA for 24 hours immediately prior to viability assays performed as described below. […]
(§5) Cells were seeded in either 96-well (5,000 cells/well) or 24-well (20,000 cells/well) plates. […] Plates were scanned using a luminescence microplate reader (BioTek). […]

The test system of assay [5] is muscle-invasive bladder cancer. Nature of the assay: Pathologic response to neoadjuvant cisplatin-based chemotherapy, Philadelphia (FCCC) cohort. The class given is in vivo, human.
From the text: as §1, §2, §3

In assay [6] the test system is KE1 bladder cancer cell line (ERCC2-mutated derivative of KU19-19, NER-deficient). As to the kind of experiment: In vitro drug sensitivity assay (CellTiter-Glo). The class given is cell-based. As to conditions: NER-deficient KE1, compared with isogenic KU19-19; 48 to 72 hours.
From the text: as §4, §5

The test system of assay [7] is muscle-invasive and metastatic urothelial cancer. As to conditions: cisplatin-based chemotherapy, first-line; cited from earlier work.

These results are taken from patent US12691143B2, “Method for treating cancer” (priority 2020, dated 2026).

Consider `N.N.[Cl][Pt][Cl]` [cisplatin], for which the cisplatin responders in assay [1] (WT ERCC2 patients, ERCC2mut score<0.70 (9 of 32)) is given as 28%; in assay [1] (WT ERCC2 patients, ERCC2mut score≥0.70 (seven of nine)), 78%; in assay [1] (WT ERCC2 patients, NERDetect score<0.75 (10 of 31)), 32%; in assay [1] (WT ERCC2 patients, NERDetect score≥0.75 (six of eight)), 75%; in assay [1] (all 41 WT ERCC2 cases (16)), 39%. Further, the complete response rate in assay [1] (ERCC2mut score<0.70 (10 of 33)) was 30%; in assay [1] (ERCC2mut signature score≥0.70 (15 of 17)), 88%; in assay [1] (NERDetect score ≥0.75 (14 of 16)), 87%; in assay [1] (NERDetect score<0.75 (11 of 34)), 32%; in assay [5] (ERCC2mut score<0.70 (14 of 42)), 33%; in assay [5] (ERCC2mut signature score≥0.70 (all six)), 100%. The complete response rate amounted to 34% in assay [5] (NERDetect score<0.75 (14 of 41)) and 86% in assay [5] (NERDetect score≥0.75 (six of seven)). Besides, in assay [2], the “cisplatin sensitivity after re-expression of ERCC4” value is recorded as “could be rescued”. Further, the “cisplatin IC50, cisplatin resistant cell line relative to parental” value in assay [3] is ~ 3.5 fold. In assay [4], the drug sensitivity entry is recorded as “significantly increased sensitivity”. In assay [6], the “drug sensitivity (survival as percentage of drug-free media)” value is “increased sensitivity”. Besides, the “patients with an initial response” value in assay [7] was 60-70%.
